According to patent publication US6525001B1, “Substituted pyrimidine and pyridine herbicides” (Mid-American Commercialization Corporation, priority 1997, dated 2003):

Assays:
Assay in all cases: Test B pre-/postemergence
Format in all cases: in vivo
Parameters in all cases: key: 0 is no effect; 10 is complete control
[1] = system: bedstraw (Galium aparine)
In short: (§1)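 Response scores run from 0, meaning no effect, to 10, meaning complete control, assigned by eye relative to controls twelve to sixteen days after spraying. Treatment was both preemergence on planted seed and postemergence on plants at the 1- to 4-leaf stage.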

[2] = system: blackgrass (Alopecurus myosuroides)
In short: as §1

[3] = system: broadleaf signalgrass (Brachiaria decumbens)
In short: as §1

[4] = system: cocklebur (Xanthium strumarium)
In short: as §1

corn (Zea mays) = system: corn (Zea mays)
In short: as §1

[5] = system: crabgrass (Digitaria sanguinalis)
In short: as §1

[6] = system: momingglory (Ipomoea hederacea)
In short: as §1

[7] = system: pigweed (Amaranthus retroflexus)
In short: as §1

rape (Brassica napus) = system: rape (Brassica napus)
In short: as §1

soybean (Glycine max) = system: soybean (Glycine max)
In short: as §1

[8] = system: sugar beet (Beta vulgaris)
In short: as §1

[9] = system: velvetleaf (Abutilon theophrasti)
In short: as §1

[10] = system: wheat (Triticum aestivum)
In short: as §1

wild oat (Avena fatua) = system: wild oat (Avena fatua)
In short: as §1

COc1cnc(-c2ccc(C(F)(F)F)cc2)nc1Cc1cccc(C(F)(F)F)c1 [Compound 23]
Plant response rating, Bedstraw ([1]; Rate 62 g/ha, Postemergence): 9 | Plant response rating, Bedstraw ([1]; Rate 125 g/ha, Postemergence): 9 | Bedstraw plant response rating ([1]; Rate 125 g/ha, Preemergence): 8 | Plant response rating, Bedstraw ([1]; Rate 250 g/ha, Postemergence): 9 | Plant response rating, Bedstraw ([1]; Rate 250 g/ha, Preemergence): 9 | Plant response rating, Blackgrass ([2]; Rate 62 g/ha, Postemergence): 6 | Blackgrass plant response rating ([2]; Rate 62 g/ha, Preemergence): 6 | Plant response rating, Blackgrass ([2]; Rate 125 g/ha, Postemergence): 7 | Blackgrass plant response rating ([2]; Rate 125 g/ha, Preemergence): 9 | Plant response rating, Blackgrass ([2]; Rate 250 g/ha, Postemergence): 9 | Plant response rating, Blackgrass ([2]; Rate 250 g/ha, Preemergence): 9 | Plant response rating, B. signalgrass ([3]; Rate 62 g/ha, Postemergence): 4 | B. signalgrass plant response rating ([3]; Rate 62 g/ha, Preemergence): 9 | Plant response rating, B. signalgrass ([3]; Rate 125 g/ha, Postemergence): 5 | B. signalgrass plant response rating ([3]; Rate 125 g/ha, Preemergence): 9 | Plant response rating, B. signalgrass ([3]; Rate 250 g/ha, Postemergence): 9 | Plant response rating, B. signalgrass ([3]; Rate 250 g/ha, Preemergence): 9 | Plant response rating, Cocklebur ([4]; Rate 62 g/ha, Postemergence): 9 | Cocklebur plant response rating ([4]; Rate 62 g/ha, Preemergence): 1 | Plant response rating, Cocklebur ([4]; Rate 125 g/ha, Postemergence): 10 | Cocklebur plant response rating ([4]; Rate 125 g/ha, Preemergence): 1 | Plant response rating, Cocklebur ([4]; Rate 250 g/ha, Postemergence): 10 | Plant response rating, Cocklebur ([4]; Rate 250 g/ha, Preemergence): 3 | Plant response rating, Corn (corn (Zea mays); Rate 62 g/ha, Postemergence): 2 | Corn plant response rating (corn (Zea mays); Rate 62 g/ha, Preemergence): 0 | Plant response rating, Corn (corn (Zea mays); Rate 125 g/ha, Postemergence): 3 | Corn plant response rating (corn (Zea mays); Rate 125 g/ha, Preemergence): 1 | Plant response rating, Corn (corn (Zea mays); Rate 250 g/ha, Postemergence): 3 | Plant response rating, Corn (corn (Zea mays); Rate 250 g/ha, Preemergence): 1 | Plant response rating, Crabgrass ([5]; Rate 62 g/ha, Postemergence): 7 | Crabgrass plant response rating ([5]; Rate 62 g/ha, Preemergence): 9 | Plant response rating, Crabgrass ([5]; Rate 125 g/ha, Postemergence): 9 | Crabgrass plant response rating ([5]; Rate 125 g/ha, Preemergence): 10 | Plant response rating, Crabgrass ([5]; Rate 250 g/ha, Postemergence): 9 | Plant response rating, Crabgrass ([5]; Rate 250 g/ha, Preemergence): 10 | Plant response rating, Morningglory ([6]; Rate 62 g/ha, Postemergence): 6 | Morningglory plant response rating ([6]; Rate 62 g/ha, Preemergence): 4 | Plant response rating, Morningglory ([6]; Rate 125 g/ha, Postemergence): 9 | Morningglory plant response rating ([6]; Rate 125 g/ha, Preemergence): 8 | Plant response rating, Morningglory ([6]; Rate 250 g/ha, Postemergence): 9 | Plant response rating, Morningglory ([6]; Rate 250 g/ha, Preemergence): 10 | Plant response rating, Redroot pigweed ([7]; Rate 62 g/ha, Postemergence): 9 | Redroot pigweed plant response rating ([7]; Rate 62 g/ha, Preemergence): 9 | Plant response rating, Redroot pigweed ([7]; Rate 125 g/ha, Postemergence): 10 | Redroot pigweed plant response rating ([7]; Rate 125 g/ha, Preemergence): 9 | Plant response rating, Redroot pigweed ([7]; Rate 250 g/ha, Postemergence): 10 | Plant response rating, Redroot pigweed ([7]; Rate 250 g/ha, Preemergence): 10 | Plant response rating, Rape (rape (Brassica napus); Rate 62 g/ha, Postemergence): 10 | Rape plant response rating (rape (Brassica napus); Rate 62 g/ha, Preemergence): 1 | Plant response rating, Rape (rape (Brassica napus); Rate 125 g/ha, Postemergence): 10 | Rape plant response rating (rape (Brassica napus); Rate 125 g/ha, Preemergence): 3 | Plant response rating, Rape (rape (Brassica napus); Rate 250 g/ha, Postemergence): 10 | Plant response rating, Rape (rape (Brassica napus); Rate 250 g/ha, Preemergence): 7 | Plant response rating, Soybean (soybean (Glycine max); Rate 62 g/ha, Postemergence): 8 | Soybean plant response rating (soybean (Glycine max); Rate 62 g/ha, Preemergence): 1 | Plant response rating, Soybean (soybean (Glycine max); Rate 125 g/ha, Postemergence): 8 | Soybean plant response rating (soybean (Glycine max); Rate 125 g/ha, Preemergence): 1 | Plant response rating, Soybean (soybean (Glycine max); Rate 250 g/ha, Postemergence): 8 | Plant response rating, Soybean (soybean (Glycine max); Rate 250 g/ha, Preemergence): 1 | Plant response rating, Sugarbeets ([8]; Rate 62 g/ha, Postemergence): 10 | Sugarbeets plant response rating ([8]; Rate 62 g/ha, Preemergence): 8 | Plant response rating, Sugarbeets ([8]; Rate 125 g/ha, Postemergence): 10 | Sugarbeets plant response rating ([8]; Rate 125 g/ha, Preemergence): 8 | Plant response rating, Sugarbeets ([8]; Rate 250 g/ha, Postemergence): 10 | Plant response rating, Sugarbeets ([8]; Rate 250 g/ha, Preemergence): 10 | Plant response rating, Velvetleaf ([9]; Rate 62 g/ha, Postemergence): 9 | Velvetleaf plant response rating ([9]; Rate 62 g/ha, Preemergence): 1 | Plant response rating, Velvetleaf ([9]; Rate 125 g/ha, Postemergence): 9 | Velvetleaf plant response rating ([9]; Rate 125 g/ha, Preemergence): 3 | Plant response rating, Velvetleaf ([9]; Rate 250 g/ha, Postemergence): 9 | Plant response rating, Velvetleaf ([9]; Rate 250 g/ha, Preemergence): 10 | Plant response rating, Wheat ([10]; Rate 62 g/ha, Postemergence): 3 | Wheat plant response rating ([10]; Rate 62 g/ha, Preemergence): 2 | Plant response rating, Wheat ([10]; Rate 125 g/ha, Postemergence): 4 | Wheat plant response rating ([10]; Rate 125 g/ha, Preemergence): 3 | Plant response rating, Wheat ([10]; Rate 250 g/ha, Postemergence): 5 | Plant response rating, Wheat ([10]; Rate 250 g/ha, Preemergence): 6 | Plant response rating, Wild oats (wild oat (Avena fatua); Rate 62 g/ha, Postemergence): 5 | Wild oats plant response rating (wild oat (Avena fatua); Rate 62 g/ha, Preemergence): 7 | Plant response rating, Wild oats (wild oat (Avena fatua); Rate 125 g/ha, Postemergence): 6 | Wild oats plant response rating (wild oat (Avena fatua); Rate 125 g/ha, Preemergence): 8 | Plant response rating, Wild oats (wild oat (Avena fatua); Rate 250 g/ha, Postemergence): 9 | Plant response rating, Wild oats (wild oat (Avena fatua); Rate 250 g/ha, Preemergence): 9
